Laboratory results published in the NIST ThermoML archive (doi:10.1021/je1002829).

Test: xn = mol fraction of the nth substance listed
Conditions: for mass density: 101 kPa, Liquid, Pycnometric method

CCCCC(=O)O [pentanoic acid] + O
Conditions	mass density, 293.15 K [kg/m3]	mass density, 298.15 K [kg/m3]	mass density, 303.15 K [kg/m3]	mass density, 308.15 K [kg/m3]	surface tension liquid-gas, 293.15 K [mN/m]	surface tension liquid-gas, 298.15 K [mN/m]	surface tension liquid-gas, 303.15 K [mN/m]	surface tension liquid-gas, 308.15 K [mN/m]
x1 = 0.00015	998.24	997.08	995.67	994.07	–	–	–	–
x1 = 0.00016	–	–	–	–	63.92	64.63	63.6	63.01
x1 = 0.00043	998.28	997.12	995.68	994.07	–	–	–	–
x1 = 0.00048	–	–	–	–	57.45	57.4	56.82	56.37
x1 = 0.00056	–	–	–	–	56.19	56.09	55.49	55.07
x1 = 0.0006	998.31	997.14	995.72	994.09	–	–	–	–
x1 = 0.00083	–	–	–	–	52.45	52.12	51.63	51.27
x1 = 0.00099	–	–	–	–	50.54	50.05	49.71	49.38
x1 = 0.00106	998.36	997.18	995.77	994.1	–	–	–	–
x1 = 0.00121	–	–	–	–	48.25	47.66	47.43	47.13
x1 = 0.00143	998.42	997.22	995.77	994.12	–	–	–	–
x1 = 0.00148	998.43	997.23	995.79	994.12	–	–	–	–
x1 = 0.0015	–	–	–	–	45.82	45.32	44.93	44.64
x1 = 0.00173	–	–	–	–	44.26	43.88	43.28	43
x1 = 0.0018	998.47	997.25	995.81	994.13	–	–	–	–
x1 = 0.00195	998.49	997.28	995.82	994.15	–	–	–	–
x1 = 0.00196	–	–	–	–	42.94	42.57	41.86	41.59
x1 = 0.00205	998.5	997.29	995.83	994.14	–	–	–	–
x1 = 0.00219	–	–	–	–	41.78	41.26	40.63	40.36
x1 = 0.00222	998.52	997.29	995.83	994.16	–	–	–	–
x1 = 0.00228	998.54	997.31	995.84	994.16	–	–	–	–
x1 = 0.0025	998.56	997.33	995.86	994.18	–	–	–	–
x1 = 0.00259	–	–	–	–	39.97	39.16	38.8	38.54
x1 = 0.00271	998.58	997.35	995.88	994.19	–	–	–	–
x1 = 0.00283	–	–	–	–	38.97	38.18	37.81	37.57
x1 = 0.00289	998.62	997.37	995.89	994.19	–	–	–	–
x1 = 0.00299	–	–	–	–	38.32	37.6	37.18	36.94
x1 = 0.00305	998.63	997.4	995.91	994.21	–	–	–	–
x1 = 0.00326	–	–	–	–	37.25	36.51	36.1	35.9
x1 = 0.00349	–	–	–	–	36.38	35.61	35.15	34.97
x1 = 0.0035	998.69	997.43	995.94	994.23	–	–	–	–

CCC(=O)O [propanoic acid] + O
Conditions	mass density, 293.15 K [kg/m3]	mass density, 298.15 K [kg/m3]	mass density, 303.15 K [kg/m3]	mass density, 308.15 K [kg/m3]	surface tension liquid-gas, 293.15 K [mN/m]	surface tension liquid-gas, 298.15 K [mN/m]	surface tension liquid-gas, 303.15 K [mN/m]	surface tension liquid-gas, 308.15 K [mN/m]
x1 = 0.00861	–	–	–	–	53.75	52.45	52.18	51.48
x1 = 0.01457	1000.94	999.46	997.79	996.38	49.8	49.01	48.47	47.97
x1 = 0.02075	–	–	–	–	46.86	46.29	45.79	45.31
x1 = 0.03268	1004.5	1002.95	1001.28	998.86	42.79	42.3	41.69	41.23
x1 = 0.0455	–	–	–	–	39.75	39.16	38.43	37.89
x1 = 0.05436	1008.59	1006.51	1004.63	1002.08	38.2	37.55	36.83	36.18
x1 = 0.06602	–	–	–	–	36.71	36.04	35.36	34.61
x1 = 0.0747	–	–	–	–	35.93	35.28	34.6	33.85
x1 = 0.0869	1014.63	1011.95	1009.33	1006.91	35.19	34.59	33.85	33.19
x1 = 0.1019	1017.46	1014.23	1011.41	1008.86	–	–	–	–
x1 = 0.1095	–	–	–	–	34.48	33.94	33.04	32.62
x1 = 0.128	1020.75	1017.92	1014.77	1011.7	34.1	33.59	32.68	32.35
x1 = 0.1494	–	–	–	–	33.68	33.18	32.43	32
x1 = 0.171	1025.1	1021.28	1017.58	1013.89	33.22	32.71	32.27	31.51
x1 = 0.1823	–	–	–	–	32.96	32.45	32.21	31.21
x1 = 0.1947	1025.78	1022.21	1018.26	1014.09	–	–	–	–
x1 = 0.2318	1026.54	1022.48	1018.39	1014.03	–	–	–	–
x1 = 0.2485	1026.51	1022.21	1018.12	1013.78	–	–	–	–
x1 = 0.2755	1026.19	1021.74	1017.72	1013.1	–	–	–	–
x1 = 0.3043	1025.42	1021.28	1017.05	1012.52	–	–	–	–
x1 = 0.333	1024.97	1020.74	1016.65	1011.57	–	–	–	–
x1 = 0.3701	1024.09	1019.95	1015.5	1010.29	–	–	–	–
x1 = 0.4001	1023.22	1018.88	1014.2	1009.37	–	–	–	–
